Read-outs that look alike come from different tables or passages of the source.
Tests used:
[1] = tested on: diploidem Roggen Kharkovskaya 55; test: Field test of gametocidal activity, diploid rye Kharkovskaya 55; type: in vivo; settings: for Prozentsatz des Ansetzens von Samen bei freier Bestäubung: control = 100
Excerpt: (§1) Die gametozide Aktivität der erfindungsgemäßen Sterilisationsmittel war in Feldversuchen in verschiedenen bodenklimatischen Zonen mit Teilstücken von 10 m^2 Größe in dreibis viermaliger Wiederholung festgestellt. Jedes Sterilisationsmittel wurde mindenstens 5 Jahre lang geprüft.
(§2) Die Entwicklung der Perioden der Organogenese wird zytologisch überwacht. Die Behandlung von Pflanzen mit dem Sterilisationsmittel erfolgt am Anfang der fünften Periode der Organogenese nach Kupermann.
(§3) Mit dem Ährenschieben verwirklicht man die Isolierung von Hauptähren und anderen Stockwerken in Pergametbeuteln. Bei Weizen und Tritikale werden Einzelisolatoren benutzt. Bei Roggen schließt man je 1 Ähre von […] verschiedenen nebeneinander befindlichen Pflanzen unter einen gemeinsamen Isolator ein. Bei Hirse wird jede Rispe getrennt isoliert. Der Sterilitätsprozentsatz (X) für Weizen, Roggen, Tritikale und Hirse wird nach der Formel [formula] ermittelt.
(§4) Die Kornzahl in nicht isolierten Ähren von Kontrollpflanzen wird bedingt für 100 % Ansetzen bei freier Bestäubung angenommen.
(§5) Um zuverlässige Angaben zu erhalten, verwendet man 20 bis 25 Isolatoren je Wiederholung für Weizen und Tritikale, 10 bis 15 Isolatoren jeder Wiederholung für Roggen und Hirse.
Pflanzen von diploidem Roggen Kharkovskaya 55 werden in der V. Periode der Organogenese mit einer l%igen wäßrigen Emulsion von 1,1,3-Tribrompropan, 1,2,3-Tribrompropan, 1,2-Dibrompropan, 1,1,3-Tribrom-3-chlorpropan, 1,2--Dibrom-3-chlorpropan, 1,1,1,3-Tetrabromheptan, 1,1,3-Tribromheptan bzw. 1,2-Dibromheptan behandelt. Die Emulsion enthält 0,5 Masse% C12-C14-Kalziumalkylbenzolsulfonat und 0,01 Masse% Dimethylformamid als Adjuvans. Der Verbrauch an Präparat beträgt 6 kg/ha bei 600 1 Wasserdurchsatz. Die Prüfergebnisse sind in der Tabelle 13 angegeben. Die gleichen Ergebnisse sind bei der Behandlung von diploidem Roggen Kharkovskaya 55 in der VI. Periode der Organogenese erhalten.

[2] = tested on: Winterweizens Sorte Mironowskaya 808; test: Field test of gametocidal activity (anther sterilisation), winter wheat Mironowskaya 808; type: in vivo, Weizen; settings: for Prozentsatz des Ansetzens von Samen bei freier Bestäubung: control = 100; for pest or weed control at 1 %, 10000 g/ha: read-out: Prozentsatz der Sterilität %
Excerpt: as §1, §2, §3, §4, §5
Pflanzen des Winterweizens Sorte Mironowskaya 808 werden in der V.Periode der Organogenese durch Zerstäubung der 2%igen wäßrigen Emulsion von 1,1,3-Tribrompropan mit Hilfe einer Rückenspritze behandelt.
Als Emulgierungsmittel setzt man 0,5 Masse% C12-C14--Kalziumalkylbenzolsulphonat zu. Als Adjuvans enthält die Emulsion 0,01 Masse% Dimethylsulfoxid. Der Verbrauch an Präparat beträgt 20 kg/ha bei 1000 Liter Wasserdurchsatz. Als Kontrolle dienen Pflanzen, behandelt mit einem Verdünner ohne Sterilisationsmittel. Die Ergebnisse sind in der Tabelle 1 angegeben.
Der ProzeB wird analog zu dem in Beispiel 1 beschriebenen durchgeführt. Als Sterilisationsmittel verwendet man eine 2%ige waßrige Emulsion von 1,1,3-Tribrom-4-chlorbutan, 1,1,2,3-Tetrabrompropan. Die Prüfergebnisse sind in der Tabelle 1 angegeben.
Der Prozeß wird analog zu dem in Beispiel 1 beschriebenen durchgeführt, nur daß man 1%ige wäßrige Emulsion von 1,2,3-Tribrompropan, 1,2-Dibrompropan, 1,1,3-Tribrom-3--chlorpropan, 1,2-Dibrom-3-chlorpropan, 1,3-Dibrompropan, 1,1,1,3-Tetrabromheptan, 1,1,3-Tribromheptan, 1,2-Dibromheptan verwendet. Die Präparatdosis beträgt 10 kg ha. Die Prüfergebnisse sind in der Tabelle 1 angegeben. Die gleichen Ergebnisse sind bei der Behandlung des Weizens Sorte Mironowskaya 808 in der VI. Periode der Organogenese erhalten.

[3] = tested on: Sommerweizens Sorte Moskowskaya 35; test: Field test of gametocidal activity, spring wheat Moskowskaya 35; type: in vivo, Weizen; settings: for Kornzahl der Ähre bei freier Bestäubung / Kornzahl der Ähre im Isolator / Prozentsatz des Ansetzens von Samen bei freier Bestäubung: Moskowskaya 35, period V, 1% aqueous emulsion, 6 kg/ha in 600 l water; for Prozentsatz des Ansetzens von Samen bei freier Bestäubung: control = 100; for pest or weed control at 6000 g/ha: read-out: Prozentsatz der Sterilität
Excerpt: as §1, §2, §3, §4, §5
Pflanzen des Sommerweizens Sorte Moskowskaya 35 werden in der V. Periode der Organogenese (nach Kupermann) mit einer l%igen wäßrigen Emulsion von 1,1,3-Tribrompropan, […], 1,1,2,3-Tetrabrompropan, 1,2,3-Tribrompropan, 1,2-Dibrompropan, 1,1,3-Tribrom-3-chlorpropan, 1,2-Dibrom-3-chlorpropan, 1,3-Dibrompropan, 1,1,1,3-Tetrabromheptan bzw. 1,1,3-Tribromheptan behandelt. Die Emulsion enthält als Emulgierungsmittel 0,5 Masse% C12-C14-Kalzium- alkylbenzolsulfonat und als Adjuvans 0,01 Masse% Dimethylformamid. Der Verbrauch an Präparat beträgt 6 kg/ha bei 600 1 Wasserdurchsatz. Als Kontrolle dienen Pflanzen, behandelt mit dem Verdünner ohne Sterilisationsmittel.
Die Prüfergebnisse sind in der Tabelle 2 angegeben. Die gleichen Ergebnisse sind bei der Behandlung des Sommerweizens Sorte Moskowskaya 35 in der VI.Periode der Organogenese erhalten.

[4] = tested on: Hirse Sorte Mironovskoye 94; test: Field test of gametocidal activity, millet Mironovskoye 94; type: in vivo; settings: for Prozentsatz des Ansetzens von Samen bei freier Bestäubung: control = 100
Excerpt: as §1, §2, §3, §4, §5
Pflanzen der Hirse Sorte Mironovskoye 94 werden in der V.Periode der Organogenese mit einer 1%igen wäßrigen Emulsion von 1,1,3-Tribrompropan, 1,2,3-Tribrompropan, 1,2-Dibrompropan, 1,2-Dibrom-3-chlorpropan, 1,3-Dibrompropan, 1,1,1,3-Tetrabromheptan, 1,1,3-Tribromheptan, 1,2-Dibromheptan behandelt. Die Emulsion enthält 0,5 Masse% C12-C14--Kalziumalkylbenzolaulfonat und 0,01 Masse% Dimethylsulfoxid als Adjuvans. Der Verbrauch an Präparat beträgt 6 kg/ha bei 600 1 Wasserdurchsatz. Die Prüfergebnisse sind in der Tabelle 15 angegeben. Die gleichen Ergebnisse sind bei der Behandlung der Hirse Sorte Mironovskoye 94 in der VI. Periode der Organogenese erhalten.

[5] = tested on: diploidem Roggen Chulpan; test: Field test of gametocidal activity, diploid rye Chulpan; type: in vivo; settings: for Prozentsatz des Ansetzens von Samen bei freier Bestäubung: control = 100
Excerpt: as §1, §2, §3, §4, §5
Pflanzen von diploidem Roggen Chulpan werden in der V.Periode der Organogenese mit einer 1%igen wäßrigen Emulsion von 1,1,3-Tribrompropan, 1,1,3-Tribrom-4-chlorbutan, 1,1,2,3-Tetrabrompropan, 1,2,3-Tribrompropan, 1,2-Dibrompropan, 1,1,3-Tribrom-3-ohlorpropan, 1,2-Dibrom-3--chlorpropan, 1,3-Dibrompropan, 1,1,1,3-Tetrabromheptan, 1,1,3-Tribromheptan bzw. 1,2-Dibromheptan behandelt. Die Emulsion enthält 0,5 Masse% C12-C14-Kalziumalkylbenzolsul- fonat und 0,01 Masse% Dimethylsulfoxid. Der Verbrauch an Präparat beträgt 10 kg/ha. Die Prüfergebnisse sind in der Tabelle 11 angegeben. Die gleichen Ergebnisse sind bei der Behandlung von diploidem Roggen Chulpan in der VI. Periode der Organogenese erhalten.

[6] = Kharkovskaya 55, period V, 1% aqueous emulsion, 6 kg/ha in 600 l water
[7] = read-out: Prozentsatz der Sterilität
[8] = Mironowskaya 808, period V of organogenesis, 2% aqueous emulsion, 20 kg/ha in 1000 l water
[9] = Mironovskoye 94, period V, 1% aqueous emulsion, 6 kg/ha in 600 l water
[10] = Chulpan, period V, 1% aqueous emulsion, 10 kg/ha
[11] = Mironowskaya 808, period V of organogenesis, 1% aqueous emulsion, 10 kg/ha

SMILES | Kornzahl der Ähre bei freier Bestäubung [1, 6] | Kornzahl der Ähre im Isolator [1, 6] | Prozentsatz des Ansetzens von Samen bei freier Bestäubung [1, 6] | pest or weed control at 6000 g/ha [1, 7] | Kornzahl der Ähre bei freier Bestäubung [3] | Kornzahl der Ähre im Isolator [3] | Prozentsatz des Ansetzens von Samen bei freier Bestäubung [3] | pest or weed control at 6000 g/ha [3] | Kornzahl der Rispe bei freier Bestäubung [4, 9] | Kornzahl der Rispe im Isolator [4, 9] | Prozentsatz des Ansetzens von Samen bei freier Bestäubung [4, 9] | pest or weed control at 6000 g/ha [4, 7] | Kornzahl der Ähre bei freier Bestäubung [5, 10] | Kornzahl der Ähre im Isolator [5, 10] | Prozentsatz des Ansetzens von Samen bei freier Bestäubung [5, 10] | pest or weed control at 10000 g/ha [5, 7] | Kornzahl der Ähre bei freier Bestäubung [2, 11] | Kornzahl der Ähre im Isolator [2, 11] | Prozentsatz des Ansetzens von Samen bei freier Bestäubung [2, 11] | further results
BrCCC(Br)Br [Beispiel 1, 1,1,3-Tribrompropan] | 43,1 | 1,2 | 95,6% | 97.2% | 34,2 | 0,7 | 89,5% | 99.9% | 175,1 | 0,0 | 71,6% | 100% | 46,5 | 0,2 | 92,8% | 99.6% | – | – | – | Kornzahl der Ähre bei freier Bestäubung [2, 8]: 40,3; Kornzahl der Ähre im Isolator [2, 8]: 0,9; Prozentsatz des Ansetzens von Samen bei freier Bestäubung [2, 8]: 84,0%
CC(Br)CBr (stereo not shown) [Beispiel 5, 1,2-Dibrompropan] | 42,8 | 0,8 | 94,9% | 98.1% | 33,6 | 0,0 | 87,9% | 100% | 160,3 | 0,0 | 65,5% | 100% | 48,2 | 0,0 | 96,2% | 100% | 36,7 | 0,1 | 98,4% | pest or weed control at 1 %, 10000 g/ha [2]: 99.7%
CCCCCC(Br)CBr (stereo not shown) [Beispiel 11, 1,2-Dibromheptan] | 34,0 | 0,0 | 91,6% | – | – | – | – | – | 159,6 | 0,0 | 65,2% | – | 48,3 | 0,0 | 96,4% | – | 39,7 | 0,0 | 95,4% | percent sterility at 6000 g/ha ([1]; Kharkovskaya 55, period V, 1% aqueous emulsion, 6 kg/ha in 600 l water, read-out: Prozentsatz der Sterilität): 100%; pest or weed control at 1 %, 10000 g/ha [2, 11]: 100%; percent sterility at 6000 g/ha ([4]; Mironovskoye 94, period V, 1% aqueous emulsion, 6 kg/ha in 600 l water, read-out: Prozentsatz der Sterilität): 100%; percent sterility at 10000 g/ha ([5]; Chulpan, period V, 1% aqueous emulsion, 10 kg/ha, read-out: Prozentsatz der Sterilität): 100%

— EP0358766A1, “METHOD OF STERILIZING PLANT ANTHERS” (VSESOJUZNY NAUCHNO-ISSLEDOVATELSKY INST. SELSKOKHOZYAISTV. …, priority 1988, dated 1989)
